Measured values: article PMC7596181 (Frontiers in Immunology, 2020)

Target: human TLR4 (Homo sapiens, UniProt O00206+Q9Y6Y9)
Assay: Mixed agonist-antagonist dose curves at fixed ratio, human TLR4 HEK-Blue SEAP
Format: cell-based
Set-up: host or cells: HEK-Blue (HEK293-derived) reporter cells
Procedure: SEAP assays were performed to evaluate the extent to which TLR4 signaling was activated in HEK-Blue reporter cells expressing mouse or human receptors (CD14, MD2 and TLR4). Reporter cells were harvested when 70–80% confluent and plated in 96-well, flat-bottom microtiter plates either 1 h, one day or two days (5 × 10^4, 4 × 10^4 or 2 × 10^4 cells/well, respectively) before addition of TLR4 agonists for 18–24 h. Culture supernatants were transferred to U-bottom microtiter plates, centrifuged and transferred again to microtiter plates to ensure reporter cells were not present. The culture supernatants were added to QUANTI-BLUE substrate following instructions provided by the manufacturer (InvivoGen cat. nos. rep-qbl or rep-qbs) and incubated at 37°C in a tissue culture incubator. At successive intervals beginning 10 min after mixing the supernatants and substrate, the plates were placed in an Emax plate reader (Molecular Devices LLC) and optical density was measured at visible light wavelength […] (OD650). The shortest incubations at which dose response curve fits produced maximal R^2 ‘goodness of fit’ values, as determined by GraphPad Prism software, were used for analysis.
Pharmacological profiles of the TLR4 reagents were generated by performing dose response curves in one of four formats. 1) Agonist potency and efficacy (EC50 and height of dose plateau, respectively) were measured by diluting TLR4 reagents successively in complete culture medium [DMEM or RPMI supplemented with fetal bovine serum (FBS) or RPMI supplemented with human serum, depending on cell-type]. Half-log step dilutions were performed in 96-well, U-bottom microtiter plates using a multichannel pipette to transfer and mix the suspensions, with fresh tips used for each dilution step. One-tenth (20 μl) volumes from wells of the dilution plate were then transferred to wells containing cells that had been plated in nine-tenth volumes (180 μl) of culture medium. 2) Mixed agonist–antagonist potency and efficacy were measured by mixing a TLR4 agonist with a candidate antagonist at a fixed ratio and then performing half-log step dilutions before treating HEK reporter cells. Analysis of values obtained from SEAP assays of culture supernatants was then performed as described for preparations containing agonist alone, above. 3) Competitive vs allosteric or non-competitive antagonist type was evaluated by diluting a reference agonist within a fixed concentration of a candidate inhibitor in half-log steps, treating HEK reporter cells, performing SEAP assays and then analyzing the data as described for agonist assays, above. Competitive antagonists are characterized by values that reach the same dose plateau as for a reference, full agonist, while shifting potency to higher EC50 values. […] 4) Inhibitory potency (IC50) was measured by diluting antagonists within a fixed concentration of a reference agonist, treating HEK reporter cells and performing SEAP assays as described.

[1] = mixed with 3D-6A-PHAD at 5:1 antagonist:agonist
[2] = mixed with PHAD, ML4A up to 30:1 and 60:1 antagonist:agonist

Sequence of human TLR4 (O00206 24-839): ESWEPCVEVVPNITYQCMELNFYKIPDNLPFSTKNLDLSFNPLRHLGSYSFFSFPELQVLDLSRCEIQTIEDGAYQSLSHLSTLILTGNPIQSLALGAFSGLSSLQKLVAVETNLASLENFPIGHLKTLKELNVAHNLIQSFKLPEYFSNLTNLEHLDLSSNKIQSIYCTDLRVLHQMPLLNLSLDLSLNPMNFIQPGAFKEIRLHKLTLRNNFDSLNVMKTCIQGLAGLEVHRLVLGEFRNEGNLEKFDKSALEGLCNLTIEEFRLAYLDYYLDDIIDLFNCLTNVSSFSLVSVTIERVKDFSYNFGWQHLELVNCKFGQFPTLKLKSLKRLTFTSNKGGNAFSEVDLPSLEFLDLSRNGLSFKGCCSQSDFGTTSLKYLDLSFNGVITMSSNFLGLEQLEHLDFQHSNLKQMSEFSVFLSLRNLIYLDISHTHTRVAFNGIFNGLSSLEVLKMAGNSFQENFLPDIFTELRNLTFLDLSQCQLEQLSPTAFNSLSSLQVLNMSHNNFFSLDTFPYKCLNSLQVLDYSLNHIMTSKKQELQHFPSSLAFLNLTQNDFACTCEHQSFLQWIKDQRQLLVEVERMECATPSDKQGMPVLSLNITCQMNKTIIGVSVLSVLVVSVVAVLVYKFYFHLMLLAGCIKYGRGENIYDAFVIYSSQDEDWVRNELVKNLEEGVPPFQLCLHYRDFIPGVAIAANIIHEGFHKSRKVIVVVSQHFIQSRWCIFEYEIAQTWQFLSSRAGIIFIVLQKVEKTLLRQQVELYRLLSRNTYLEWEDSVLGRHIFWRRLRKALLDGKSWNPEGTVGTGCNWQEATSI
Sequence of human TLR4 (Q9Y6Y9 17-160 limits assumed): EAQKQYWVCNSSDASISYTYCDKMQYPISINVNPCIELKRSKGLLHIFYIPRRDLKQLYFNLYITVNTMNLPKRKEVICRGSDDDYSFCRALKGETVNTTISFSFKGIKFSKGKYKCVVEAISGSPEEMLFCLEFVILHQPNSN

| Structure (SMILES) | effect on agonist dose curve in fixed-ratio mixture [1] | effect on agonist dose curve in fixed-ratio mixture [2] |
| --- | --- | --- |
| CCCCCCCCCCCC(=O)OC(CCCCCCCCCCC)CC(=O)NC1C(OCC2OC(O)C(NC(=O)CC(O)CCCCCCCCCCC)C(O)C2O)OC(CO)C(OP(=O)(O)O)C1O (stereo not shown) [ML3] | appeared to limit its activity | very modestly reduced TLR4 stimulatory activity |
| CCCCCCCCCCCC(=O)OC(CCCCCCCCCCC)CC(=O)NC1C(OCC2OC(O)C(NC(=O)CC(O)CCCCCCCCCCC)C(O)C2O)OC(CO)C(OP(=O)(O)O)C1OC(=O)CC(O)CCCCCCCCCCC (stereo not shown) [ML4A] | appeared to limit its activity | very modestly reduced TLR4 stimulatory activity |
